Measured values from US20260240884A1, “MIXTURE OF HUMAN MILK OLIGOSACCHARIDES” (N.V. Nutricia, priority 2023, published 2026).

Key:
SARS-CoV2 WA1 = assay type: cell-based; details: virus pre-incubated 1 h with 0.5-16 mg/mL; MOI 0.1; 48 h; FIG. 1
RSV-A2 [1] = experiment: Pre-incubation of HEp-2 cells with HMOs before RSV-A2 infection (Viral ToxGlo); assay type: cell-based, respiratory syncytial virus
Description: To assess the effect of mixtures of HMOs on a negative-sense single-stranded RNA virus in vitro infection assays were performed with RSV-A2 strain. Pre-incubation of either HEp-2 cells or RSV-A2 with HMOs prior to infection was compared to assess anti-viral activity. Hep2 cells were exposed to the following conditions as discussed in more detail separately: • I. Pre-incubation of HEp-2 cells with HMOs before viral infection. • II.
HEp-2 cells were seeded in white [Greiner 655098]96 well plates in assay medium (EMEM [Sigma M2279]) supplemented with 2% heat-inactivated fetal bovine serum (HI-FBS) [Gibco 10500064], 1% Penicillin/streptomycin [Gibco 15140122] and 1% L-glutamine [Gibco 25030024] and incubated at 37° C. and 5% CO2 for 5 hours.
HMO mixtures were prepared in sterile water and ribavirin (compound that blocks viral RNA synthesis and viral mRNA capping) was prepared in 1% DMSO at 10× test concentration in a round-bottom 96-well plate [Corning 3788], then serially diluted 2-fold.
The following compounds were assessed for their capacity to inhibit RSV-A2 viral infection: • 2′-FL • A mixture of GOS:FOS at a 9:1 weight ratio • Total HMOs • Mixture of 5 HMOs • Mixture of 19 HMOs • 6′-SL
Test compounds were subsequently transferred to the HEp-2 cell plates. Additional assay medium was added to ensure a final HMO concentration range of 0.13-16 mg/mL. Cell plates were incubated for 24 hours at 37° cand 5% CO2.
After 24-hour incubation with the test conditions RSV-A2 was added to the HMO containing HEp-2 cell plates to achieve a final multiplicity of infection [MOI] of 0.5. Cell plates were incubated for a further 72 hours at 37° C. and 5% CO2.
Viral ToxGlo™ [Promega G8943] was added to the plates to assess cell metabolism following viral infection and HMO treatment. After 20 minutes incubation, luminescence of each plate was measured on a spectrophotometer. Data were analysed using GraphPad Prism software to determine the concentration effective in producing 50% of viral inhibition expressed as ECso values for ribavirin and HMOs where relevant.

RSV-A2 [2] = experiment: Pre-incubation of RSV-A2 with HMOs prior to infection of HEp-2 cells (Viral ToxGlo); assay type: cell-based, respiratory syncytial virus
[3] = test system: IL-8 secretion of HT-29 cells; experiment: IL-8 secretion and viability of HT-29 cells pre-incubated with test compounds and challenged with Lyovec-complexed Poly I:C; assay type: cell-based, Human
[4] = test system: rotavirus (RV) strain SA11; experiment: Caco-2 epithelial barrier model infected with rotavirus SA11 (TEER, lucifer yellow permeability); assay type: cell-based; details: Caco-2, 5% (50 mg/ml) for 4 h before SA11 MOI 0.1; 20 h p.i.; FIG. 2A

SMILES | viral neutralization efficacy (viral RNA by RT-qPCR) (SARS-CoV2 WA1) | Maximum viral inhibition (%) (RSV-A2 [1]; HEp-2 cells pre-incubated 24 h, 0.13-16 mg/mL, RSV-A2 MOI 0.5, 72 h) | Test concentration maximum viral inhibition (RSV-A2 [1]; HEp-2 cells pre-incubated 24 h, concentration at which the maximum inhibition was seen) [mg/mL] | anti-viral activity, replicate 1 (in words) (RSV-A2 [1]; HEp-2 pre-incubation, replicate 1 (67% infection)) | Maximum viral inhibition (%) (RSV-A2 [2]; RSV-A2 pre-incubated 1 h, 0.13-16 mg/mL, MOI 0.5, 72 h) | Test concentration maximum viral inhibition (RSV-A2 [2]; RSV-A2 pre-incubated 1 h, concentration at which the maximum inhibition was seen) [mg/mL] | antiviral activity (in words) (RSV-A2 [2]; RSV-A2 pre-incubated prior to infection, both replicates (94-95% infection)) | Mean IL-8 secretion ([3]; 0.1% + Poly I:C, Poly I:C alone 21799.28) [pg/mL] | Mean IL-8 secretion ([3]; 0.1%, no Poly I:C, Medium 359.54) [pg/mL] | prevention of rotavirus induced decrease in TEER [4]
CC(=O)N[C@H]1[C@H]([C@H](O)[C@H](O)CO)O[C@@](OC[C@H]2O[C@@H](O[C@H]3[C@H](O)[C@@H](O)[C@H](O)O[C@@H]3CO)[C@H](O)[C@@H](O)[C@H]2O)(C(=O)O)C[C@@H]1O [6′-SL, 6′-sialyllactose] | did not show viral neutralization efficacy | 2.6 | 8 | no anti-viral activity | −0.58 | 1 | no anti-viral activity | – | – | –
O=C[C@H](O)[C@@H](O)[C@H](O[C@@H]1O[C@H](CO)[C@@H](O)[C@H](O)[C@H]1O)[C@H](O)CO [Cellobiose, cellobiose] | – | – | – | – | – | – | – | 20023.80 | 277.94 | no effect
